# Measured values taken from paper PMC4397719 (Pharmacogenomics and Personalized Medicine, 2015).
# What was measured:
# CD-3e+ T-cells = assay: Flow cytometry viability; type: cell-based, mouse; conditions: 4 hours; for sensitivity of T-cells (viability) compared to other cell populations: 15 nM to 100 μM
# [1] = test system: normal immune cells (splenocyte immune cell subpopulations); conditions: 15 nM to 100 μM, 4 hours
Structure (SMILES),sensitivity of T-cells (viability) compared to other cell populations (CD-3e+ T-cells),"IC50 (viability) (CD-3e+ T-cells; T-cells, highest concentration of 100 μM, 36 strains)",toxicity to normal immune cells (viability) [1]
CC(=O)[C@]1(O)Cc2c(O)c3c(c(O)c2[C@@H](O[C@H]2C[C@H](N)[C@H](O)[C@H](C)O2)C1)C(=O)c1ccccc1C3=O [idarubicin],less sensitive than B-cells,–,–
COc1cccc2c1C(=O)c1c(O)c3c(c(O)c1C2=O)C[C@@](O)(C(=O)CO)C[C@@H]3O[C@H]1C[C@H](N)[C@H](O)[C@H](C)O1 [doxorubicin],least sensitive,few strains reaching the IC50 at the highest concentration of 100 μM,–
Cn1cnc2c(F)c(Nc3ccc(Br)cc3Cl)c(C(=O)NOCCO)cc21 [selumetinib],less sensitive and less variable,–,less toxic to normal immune cells than the anthracycline agents
Cn1c(=O)n(-c2ccc(C(C)(C)C#N)cc2)c2c3cc(-c4cnc5ccccc5c4)ccc3ncc21 [BEZ-235],less sensitive and less variable,–,less toxic to normal immune cells than the anthracycline agents
